Results as given in PubChem BioAssay (NCI).
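Tested at 5 concentrations; 48 h exposure; 96-well plates; endpoints linearly interpolated, else capped at highest concentration. GI50 is the concentration that inhibits growth by half. TGI: total growth inhibition.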

How the values were obtained:
Experiment in all cases: inhibition of tumour cell growth, NCI panel, 48 h
[1] = test system: 786-0 renal
[2] = test system: A498 renal
[3] = test system: A549 NSCLC
[4] = test system: ACHN renal
[5] = test system: BT-549 breast
[6] = test system: CAKI-1 renal
[7] = test system: COLO 205 colon
[8] = test system: DU-145 prostate
[9] = test system: EKVX NSCLC
[10] = test system: HCC-2998 colon
[11] = test system: HCT-116 colon
[12] = test system: HCT-15 colon
[13] = test system: HL-60(TB) leukemia
[14] = test system: HOP-62 NSCLC
[15] = test system: HOP-92 NSCLC
[16] = test system: HS 578T breast
[17] = test system: HT29 colon
[18] = test system: IGROV1 ovarian
[19] = test system: K-562 leukemia
[20] = test system: KM12 colon
[21] = test system: LOX IMVI melanoma
[22] = test system: M14 melanoma
[23] = test system: MALME-3M melanoma
[24] = test system: MCF7 breast
[25] = test system: MDA-MB-435
[26] = test system: MDA-MB-468 breast
[27] = test system: MOLT-4 leukemia
[28] = test system: NCI-H226 lung
[29] = test system: NCI-H23 lung
[30] = test system: NCI-H460 lung
[31] = test system: NCI-H522 lung
[32] = test system: NCI/ADR-RES ovarian
[33] = test system: OVCAR-3 ovarian
[34] = test system: OVCAR-4 ovarian
[35] = test system: OVCAR-5 ovarian
[36] = test system: OVCAR-8 ovarian
[37] = test system: PC-3 prostate
[38] = test system: RPMI-8226 leukemia
[39] = test system: RXF 393 renal
[40] = test system: SF-268 CNS
[41] = test system: SF-295 CNS
[42] = test system: SF-539 CNS
[43] = test system: SK-MEL-2 melanoma
[44] = test system: SK-MEL-28 melanoma
[45] = test system: SK-MEL-5 melanoma
[46] = test system: SK-OV-3 ovarian
[47] = test system: SN12C renal
[48] = test system: SNB-19 CNS
[49] = test system: SNB-75 CNS
[50] = test system: SW-620 colon
[51] = test system: T-47D breast
[52] = test system: TK-10 renal
[53] = test system: U251 CNS
[54] = test system: UACC-257 melanoma
[55] = test system: UACC-62 melanoma

Compound: O=C(N/N=C/c1ccc(-c2cccc([N+](=O)[O-])c2)o1)c1[nH]c2ccc(Br)cc2c1-c1ccccc1
- GI50 [1]: 2.75 µM
- TGI [1]: 13.3 µM
- GI50 [2]: > 100 µM
- TGI [2]: > 100 µM
- GI50 [3]: 3.66 µM
- TGI [3]: > 100 µM
- GI50 [4]: 4.76 µM
- TGI [4]: > 100 µM
- GI50 [5]: 2.16 µM
- TGI [5]: 6.28 µM
- GI50 [6]: 30.9 µM
- TGI [6]: > 100 µM
- GI50 [7]: 2.75 µM
- TGI [7]: 7.49 µM
- GI50 [8]: 4.2 µM
- TGI [8]: > 100 µM
- GI50 [9]: 5.74 µM
- TGI [9]: > 100 µM
- GI50 [10]: 4.63 µM
- TGI [10]: > 100 µM
- GI50 [11]: 3.04 µM
- TGI [11]: 10.4 µM
- GI50 [12]: 3.59 µM
- TGI [12]: > 100 µM
- GI50 [13]: 1.94 µM
- TGI [13]: 5.32 µM
- GI50 [14]: 3.49 µM
- TGI [14]: > 100 µM
- GI50 [15]: 46.1 µM
- TGI [15]: > 100 µM
- GI50 [16]: 4.26 µM
- TGI [16]: > 100 µM
- GI50 [17]: 2.58 µM
- TGI [17]: 6.97 µM
- GI50 [18]: 4.33 µM
- TGI [18]: > 100 µM
- GI50 [19]: 3.28 µM
- TGI [19]: > 100 µM
- GI50 [20]: 3.75 µM
- TGI [20]: > 100 µM
- GI50 [21]: 3.71 µM
- TGI [21]: > 100 µM
- GI50 [22]: 3.43 µM
- TGI [22]: > 100 µM
- GI50 [23]: 3.77 µM
- TGI [23]: > 100 µM
- GI50 [24]: 3.56 µM
- TGI [24]: > 100 µM
- GI50 [25]: 3.2 µM
- TGI [25]: > 100 µM
- GI50 [26]: 2.28 µM
- TGI [26]: 6 µM
- GI50 [27]: 3.45 µM
- TGI [27]: > 100 µM
- GI50 [28]: 23.5 µM
- TGI [28]: > 100 µM
- GI50 [29]: 4.87 µM
- TGI [29]: > 100 µM
- GI50 [30]: 3.49 µM
- TGI [30]: > 100 µM
- GI50 [31]: 1.73 µM
- TGI [31]: 3.98 µM
- GI50 [32]: 2.53 µM
- TGI [32]: 6.49 µM
- GI50 [33]: 3.47 µM
- TGI [33]: > 100 µM
- GI50 [34]: > 100 µM
- TGI [34]: > 100 µM
- GI50 [35]: 3.84 µM
- TGI [35]: > 100 µM
- GI50 [36]: 2.44 µM
- TGI [36]: 5.5 µM
- GI50 [37]: 4.28 µM
- TGI [37]: > 100 µM
- GI50 [38]: 3.31 µM
- TGI [38]: > 100 µM
- GI50 [39]: 2.65 µM
- TGI [39]: 7.45 µM
- GI50 [40]: 5.55 µM
- TGI [40]: > 100 µM
- GI50 [41]: 3.17 µM
- TGI [41]: > 100 µM
- GI50 [42]: 2.34 µM
- TGI [42]: 5.81 µM
- GI50 [43]: 2.68 µM
- TGI [43]: 8.93 µM
- GI50 [44]: 6.75 µM
- TGI [44]: > 100 µM
- GI50 [45]: 2.22 µM
- TGI [45]: 5.34 µM
- GI50 [46]: 3.61 µM
- TGI [46]: > 100 µM
- GI50 [47]: 3.99 µM
- TGI [47]: > 100 µM
- GI50 [48]: 3.48 µM
- TGI [48]: > 100 µM
- GI50 [49]: 4.56 µM
- TGI [49]: > 100 µM
- GI50 [50]: 4.5 µM
- TGI [50]: > 100 µM
- GI50 [51]: > 100 µM
- TGI [51]: > 100 µM
- GI50 [52]: > 100 µM
- TGI [52]: > 100 µM
- GI50 [53]: 3.34 µM
- TGI [53]: > 100 µM
- GI50 [54]: 5.79 µM
- TGI [54]: > 100 µM
- GI50 [55]: 4.46 µM
- TGI [55]: > 100 µM
